Experimental data: patent US6624119B1, “3-[Benz(ox/thi)azol-7-yl]-1h-pyrimidine-2,4-diones” (BASF Aktiengesellschaft, priority 1998, dated 2003)

Key:
Assay in all cases: greenhouse herbicidal test, post-emergence
Type in all cases: in vivo
Abutilon theophrasti = Abutilon theophrasti (velvet leaf), application rates 15.6 or 7.8 kg/ha a.s., 2 to 4 weeks
Text: (§1) The growing containers used were plastic pots containing loamy sand with approximately 3.0% of humus as the substrate. The seeds of the test plants were sown separately for each species.
(§2) For the post-emergence treatment, the test plants were first grown to a plant height of 3 to 15 cm, depending on the growth habit, and only then treated with the active ingredients which had been suspended or emulsified in water. The test plants were either sown directly and grown in the same containers or first grown separately as seedlings and transplanted into the test containers a few days prior to treatment. The rate of application for the post-emergence treatment was only 15.6 or […] of a.s. (active substance).
(§3) Depending on the species, the plants were kept at 10-25° C. or 20-35° C. The test period extended over 2 to 4 weeks. During this time, the plants were tended, and their response to the individual treatments was evaluated.
(§4) Evaluation was carried out using a scale from 0 to 100. 100 means no emergence of the plants or complete destruction of at least the aerial parts, and 0 means no damage or normal course of growth.
(§5) The plants used in the greenhouse experiments belonged to the following species: […]

Solanum nigrum = Solanum nigrum (black nightshade), application rates 15.6 or 7.8 kg/ha a.s., 2 to 4 weeks
Text: as §1, §2, §3, §4, §5

Chenopodium album = Chenopodium album (lambsquarters), application rates 15.6 or 7.8 kg/ha a.s., 2 to 4 weeks
Text: as §1, §2, §3, §4, §5

Amaranthus retroflexus = Amaranthus retroflexus (redroot pigweed), application rates 15.6 or 7.8 kg/ha a.s., 2 to 4 weeks
Text: as §1, §2, §3, §4, §5

Measured: efficacy (complete destruction; scale 0 to 100)

Cn1c(C(F)(F)F)cc(=O)n(-c2c(F)cc(Cl)c3nc(C4CCCC4)oc23)c1=O [Ia.3, 3-[4-Chloro-2-cyclopentyl-6-fluorobenzoxazol-7-yl]-1-methyl-6-trifluoromethyl-2,4-(1H,3H)-pyrimidinedione]
100%: all assays above
